Tests used:
Format in all cases: in vivo
[1] = tested on: common ragweed; assay: Test Example 3: herbicidal effects in soil treatment; conditions: dose 3.2 g/a
Summary of the method: (§1)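 Seeds were sown in sterilized diluvial soil and covered with about 1.5 cm of soil. Compounds, formulated as emulsifiable concentrates and diluted with water, were sprayed evenly over the soil surface at set doses in g/a. Herbicidal effect was scored on a rating scale three weeks later.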

[2] = tested on: wild oat; assay: as above
Summary of the method: as §1

[3] = tested on: common lambsquater; assay: as above
Summary of the method: as §1

[4] = tested on: giant foxtail; assay: as above
Summary of the method: as §1

[5] = tested on: large crabgrass; assay: as above
Summary of the method: as §1

[6] = tested on: velvetleaf; assay: as above; conditions: dose 3.2 g/a
Summary of the method: as §1

[7] = tested on: common chickweed; assay: as above
Summary of the method: as §1

[8] = tested on: beadstraw; assay: as above
Summary of the method: as §1

[9] = tested on: Italian ryegrass; assay: as above
Summary of the method: as §1

[10] = tested on: barnyardgrass; assay: as above
Summary of the method: as §1

[11] = tested on: redroot pigweed; assay: as above
Summary of the method: as §1

[12] = tested on: water foxtail; assay: as above
Summary of the method: as §1

[13] = tested on: bulrush; assay: Test Example 2: herbicidal effects during the vegetation period under submerged conditions; conditions: treatment during the vegetation period under submerged conditions; dose 2.52 g/a
Summary of the method: (§2)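 Barnyardgrass, bulrush and ducksalad were co-sown in alluvial soil flooded to 4 cm and grown in a greenhouse at 25 to 30° C. At the 1- or 2-leaf stage, water-diluted emulsifiable concentrates went onto the water surface at set doses (g/a). Herbicidal effect was scored three weeks later on a graded scale.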

[14] = tested on: ducksalad; assay: as above; conditions: treatment during the vegetation period under submerged conditions; dose 2.52 g/a
Summary of the method: as §2

[15] = tested on: barnyardgrass; assay: as above; conditions: treatment during the vegetation period under submerged conditions; dose 2.52 g/a
Summary of the method: as §2

[16] = tested on: transplanted rice; assay: Test Example 1: preemergence treatment under submerged conditions, effect on crop; conditions: dose 2.52 g/a
Summary of the method: (§3)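 Score 0–5 by mortality (5: ≥90%; 0: <5%), read 3 weeks post-application. Paddy-type cups: alluvial soil under 4 cm water, weeds seeded plus transplanted 2.5-leaf rice; diluted EC dosed onto water surface same day as sowing, g/a basis; greenhouse 25 to 30° C.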

[17] = tested on: bulrush; assay: Test Example 1: herbicidal effects in preemergence treatment under submerged conditions; conditions: dose 2.52 g/a
Summary of the method: as §3

[18] = tested on: ducksalad; assay: as above; conditions: dose 2.52 g/a
Summary of the method: as §3

[19] = tested on: barnyardgrass; assay: as above; conditions: dose 2.52 g/a
Summary of the method: as §3

[20] = tested on: common ragweed; assay: Test Example 4: herbicidal effect in foliage treatment; conditions: three weeks after application
Summary of the method: (§4)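 Weeds and crops sown in sterilized diluvial soil under ~1.5 cm cover and grown in greenhouse at 25 to 30° C. At 14 days, water-diluted emulsifiable concentrate sprayed onto foliage at set doses (g/a); herbicidal effect scored on a rating scale three weeks after application.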

[21] = tested on: posumbu knotweed; assay: as above; conditions: dose 3.2 g/a, three weeks after application
Summary of the method: as §4

[22] = tested on: wild oat; assay: as above; conditions: three weeks after application
Summary of the method: as §4

[23] = tested on: common lambsquater; assay: as above; conditions: three weeks after application
Summary of the method: as §4

[24] = tested on: giant foxtail; assay: as above; conditions: three weeks after application
Summary of the method: as §4

[25] = tested on: large crabgrass; assay: as above; conditions: three weeks after application
Summary of the method: as §4

[26] = tested on: velvetleaf; assay: as above; conditions: dose 3.2 g/a, three weeks after application
Summary of the method: as §4

[27] = tested on: common chickweed; assay: as above; conditions: three weeks after application
Summary of the method: as §4

[28] = tested on: beadstraw; assay: as above; conditions: three weeks after application
Summary of the method: as §4

[29] = tested on: Italian ryegrass; assay: as above; conditions: three weeks after application
Summary of the method: as §4

[30] = tested on: barnyardgrass; assay: as above; conditions: three weeks after application
Summary of the method: as §4

[31] = tested on: redroot pigweed; assay: as above; conditions: dose 3.2 g/a, three weeks after application
Summary of the method: as §4

[32] = tested on: water foxtail; assay: as above; conditions: three weeks after application
Summary of the method: as §4

With `COC(=O)N(c1ccccc1CN1COC(C)(C)C(F)C1=O)S(=O)(=O)C(F)(F)F` (centres unmarked) [II-33] the “J: common ragweed, herbicidal effect (evaluation scale 0-5)” value [1] was 5 (mortality of 90% or above (nearly complete death)), the “F: wild oat, herbicidal effect (evaluation scale 0-5)” value ([2]; dose 3.2 g/a) was 0 (mortality of less than 5% (almost ineffective)) and the “L: common lambsquater, herbicidal effect (evaluation scale 0-5)” value ([3]; dose 3.2 g/a) was 0 (mortality of less than 5% (almost ineffective)). For the same molecule, the “E: giant foxtail, herbicidal effect (evaluation scale 0-5)” value ([4]; dose 3.2 g/a) was 5 (mortality of 90% or above (nearly complete death)), the “D: large crabgrass, herbicidal effect (evaluation scale 0-5)” value ([5]; dose 3.2 g/a) was 5 (mortality of 90% or above (nearly complete death)) and the “I: velvetleaf, herbicidal effect (evaluation scale 0-5)” value [6] was 4 (mortality of at least 70% and less than 90%). The “N: common chickweed, herbicidal effect (evaluation scale 0-5)” value ([7]; dose 3.2 g/a) was 3 (mortality of at least 40% and less than 70%), the “O: beadstraw, herbicidal effect (evaluation scale 0-5)” value ([8]; dose 3.2 g/a) was 4 (mortality of at least 70% and less than 90%) and the “H: Italian ryegrass, herbicidal effect (evaluation scale 0-5)” value ([9]; dose 3.2 g/a) was 4 (mortality of at least 70% and less than 90%). For the same molecule, the “A: barnyardgrass, herbicidal effect (evaluation scale 0-5)” value ([10]; dose 3.2 g/a) was 5 (mortality of 90% or above (nearly complete death)), the “K: redroot pigweed, herbicidal effect (evaluation scale 0-5)” value ([11]; dose 3.2 g/a) was 3 (mortality of at least 40% and less than 70%) and the “G: water foxtail, herbicidal effect (evaluation scale 0-5)” value ([12]; dose 3.2 g/a) was 5 (mortality of 90% or above (nearly complete death)). The “B: bulrush, herbicidal effect (evaluation scale 0-5)” value (shortened to “B: bulrush, herbicidal effect”) [13] was 5 (mortality of 90% or above (nearly complete death)), the “C: ducksalad, herbicidal effect (evaluation scale 0-5)” value (“C: ducksalad, herbicidal effect” for short) [14] was 5 (mortality of 90% or above (nearly complete death)) and the “A: barnyardgrass, herbicidal effect (evaluation scale 0-5)” value [15] was 5 (mortality of 90% or above (nearly complete death)). The “a: transplanted rice, effect on crop (evaluation scale 0-5)” value [16] was 0 (mortality of less than 5% (almost ineffective)), the “B: bulrush, herbicidal effect” value [17] was 5 (mortality of 90% or above (nearly complete death)) and the “C: ducksalad, herbicidal effect” value [18] was 5 (mortality of 90% or above (nearly complete death)). For the same molecule, the “A: barnyardgrass, herbicidal effect (evaluation scale 0-5)” value [19] was 5 (mortality of 90% or above (nearly complete death)), the “J: common ragweed, herbicidal effect” value ([20]; dose 3.2 g/a) was 3 (mortality of at least 40% and less than 70%) and the “M: posumbu knotweed, herbicidal effect” value [21] was 3 (mortality of at least 40% and less than 70%). For the same molecule, the “F: wild oat, herbicidal effect” value ([22]; dose 3.2 g/a) was 0 (mortality of less than 5% (almost ineffective)), the “L: common lambsquater, herbicidal effect” value ([23]; dose 3.2 g/a) was 0 (mortality of less than 5% (almost ineffective)) and the “E: giant foxtail, herbicidal effect” value ([24]; dose 3.2 g/a) was 4 (mortality of at least 70% and less than 90%). The “D: large crabgrass, herbicidal effect” value ([25]; dose 3.2 g/a) was 4 (mortality of at least 70% and less than 90%), the “I: velvetleaf, herbicidal effect” value [26] was 3 (mortality of at least 40% and less than 70%) and the “N: common chickweed, herbicidal effect” value ([27]; dose 3.2 g/a) was 3 (mortality of at least 40% and less than 70%). The “O: beadstraw, herbicidal effect” value ([28]; dose 3.2 g/a) was 4 (mortality of at least 70% and less than 90%), the “H: Italian ryegrass, herbicidal effect” value ([29]; dose 3.2 g/a) was 4 (mortality of at least 70% and less than 90%) and the “A: barnyardgrass, herbicidal effect” value ([30]; dose 3.2 g/a) was 4 (mortality of at least 70% and less than 90%). For the same molecule, the “K: redroot pigweed, herbicidal effect” value [31] was 1 (mortality of at least 5% and less than 20%) and the “G: water foxtail, herbicidal effect” value ([32]; dose 3.2 g/a) was 5 (mortality of 90% or above (nearly complete death)).
For `CCC(=O)N(c1ccccc1CN1COC(C)(C)CC1=O)S(=O)(=O)C(F)(F)F` [II-19, 6,6-dimethyl-3-[2-(N-ethylcarbonyl-N-trifluoromethanesulfonyl)aminobenzyl]-1,3-oxazinan-4-one], the “F: wild oat, herbicidal effect (evaluation scale 0-5)” value ([2]; dose 6.3 g/a) was 0 (mortality of less than 5% (almost ineffective)), the “L: common lambsquater, herbicidal effect (evaluation scale 0-5)” value ([3]; dose 6.3 g/a) was 0 (mortality of less than 5% (almost ineffective)) and the “E: giant foxtail, herbicidal effect (evaluation scale 0-5)” value ([4]; dose 6.3 g/a) was 2 (mortality of at least 20% and less than 40%). For the same molecule, the “D: large crabgrass, herbicidal effect (evaluation scale 0-5)” value ([5]; dose 6.3 g/a) was 5 (mortality of 90% or above (nearly complete death)), the “N: common chickweed, herbicidal effect (evaluation scale 0-5)” value ([7]; dose 6.3 g/a) was 4 (mortality of at least 70% and less than 90%) and the “O: beadstraw, herbicidal effect (evaluation scale 0-5)” value ([8]; dose 6.3 g/a) was 4 (mortality of at least 70% and less than 90%). For the same molecule, the “H: Italian ryegrass, herbicidal effect (evaluation scale 0-5)” value ([9]; dose 6.3 g/a) was 5 (mortality of 90% or above (nearly complete death)), the “A: barnyardgrass, herbicidal effect (evaluation scale 0-5)” value ([10]; dose 6.3 g/a) was 5 (mortality of 90% or above (nearly complete death)) and the “K: redroot pigweed, herbicidal effect (evaluation scale 0-5)” value ([11]; dose 6.3 g/a) was 2 (mortality of at least 20% and less than 40%). For the same molecule, the “G: water foxtail, herbicidal effect (evaluation scale 0-5)” value ([12]; dose 6.3 g/a) was 5 (mortality of 90% or above (nearly complete death)), the “B: bulrush, herbicidal effect” value [13] was 5 (mortality of 90% or above (nearly complete death)) and the “C: ducksalad, herbicidal effect” value [14] was 5 (mortality of 90% or above (nearly complete death)). The “A: barnyardgrass, herbicidal effect (evaluation scale 0-5)” value [15] was 5 (mortality of 90% or above (nearly complete death)), the “a: transplanted rice, effect on crop (evaluation scale 0-5)” value [16] was 0 (mortality of less than 5% (almost ineffective)) and the “B: bulrush, herbicidal effect” value [17] was 5 (mortality of 90% or above (nearly complete death)). For the same molecule, the “C: ducksalad, herbicidal effect” value [18] was 5 (mortality of 90% or above (nearly complete death)), the “A: barnyardgrass, herbicidal effect (evaluation scale 0-5)” value [19] was 5 (mortality of 90% or above (nearly complete death)) and the “J: common ragweed, herbicidal effect” value ([20]; dose 6.3 g/a) was 5 (mortality of 90% or above (nearly complete death)). For the same molecule, the “F: wild oat, herbicidal effect” value ([22]; dose 6.3 g/a) was 0 (mortality of less than 5% (almost ineffective)), the “L: common lambsquater, herbicidal effect” value ([23]; dose 6.3 g/a) was 0 (mortality of less than 5% (almost ineffective)) and the “E: giant foxtail, herbicidal effect” value ([24]; dose 6.3 g/a) was 4 (mortality of at least 70% and less than 90%). For the same molecule, the “D: large crabgrass, herbicidal effect” value ([25]; dose 6.3 g/a) was 4 (mortality of at least 70% and less than 90%), the “N: common chickweed, herbicidal effect” value ([27]; dose 6.3 g/a) was 4 (mortality of at least 70% and less than 90%) and the “O: beadstraw, herbicidal effect” value ([28]; dose 6.3 g/a) was 5 (mortality of 90% or above (nearly complete death)). The “H: Italian ryegrass, herbicidal effect” value ([29]; dose 6.3 g/a) was 4 (mortality of at least 70% and less than 90%), the “A: barnyardgrass, herbicidal effect” value ([30]; dose 6.3 g/a) was 5 (mortality of 90% or above (nearly complete death)) and the “G: water foxtail, herbicidal effect” value ([32]; dose 6.3 g/a) was 5 (mortality of 90% or above (nearly complete death)).

Reference: US20120029187A1, “HALOALKYLSULFONANILIDE DERIVATIVE” (Nissan Chemical Industries, Ltd., priority 2009, published 2012)
